Measured values: US20260070945A1, “MACROCYCLIC IMMUNOMODULATORS” (Bristol-Myers Squibb Company, priority 2022, published 2026)
Where a SMILES comes first, the peptide text is derived from it. Bridges are numbered along the chain shown (N, C = ends). [ ]: non-standard residue; d: D form. The star is where a group is joined. Bip = N[C@@H](Cc1ccc(-c2ccccc2)cc1)C(=O)O; 4Pal = N[C@@H](Cc1ccncc1)C(=O)O; Cha = N[C@@H](CC1CCCCC1)C(=O)O; Carboxymethyl = O=C(O)C*; NMeA = CN[C@@H](C)C(=O)O; Orn = NCCC[C@H](N)C(=O)O; Aun = NCCCCCCCCCCC(=O)O; Dab = NCC[C@H](N)C(=O)O; AEEA = NCCOCCOCC(=O)O

biological target: T1, PD-1/PD-L1 interaction (PE-labeled human PD-L1-Ig binding to Jurkat cell line over-expressing human PD-1) (Homo sapiens, UniProt Q15116); test: Jurkat-PD-1 Cell Binding High-Content Screening Assay (CBA); details: Jurkat-hPD-1 cells, PE-labeled PD-L1-Ig 20 nM final; read-out: Jurkat HPD1 PDL1 IC50
T1 construct: expressed in transfected cells; host or cells: Jurkat
Summary of the method: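 Binding of 20 nM (final) PE-tagged PD-L1-Ig to compound-pretreated Jurkat-hPD-1 cells was measured by high-content imaging after 1 h. Pretreatment ran 2 h at 37 °C in DMEM with 10% fetal calf serum.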

T1 sequence (Q15116 25-288): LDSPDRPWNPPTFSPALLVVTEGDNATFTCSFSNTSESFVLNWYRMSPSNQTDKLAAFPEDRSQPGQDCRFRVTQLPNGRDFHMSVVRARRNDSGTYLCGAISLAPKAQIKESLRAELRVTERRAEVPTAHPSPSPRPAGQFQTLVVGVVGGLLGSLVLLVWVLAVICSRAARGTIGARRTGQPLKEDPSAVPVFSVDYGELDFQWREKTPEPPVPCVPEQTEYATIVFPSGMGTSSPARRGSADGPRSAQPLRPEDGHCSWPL

Structure (SMILES)	IC50 [µM]
CC(C)C[C@H]1NC(=O)[C@H](C)N(C)C(=O)[C@H](Cc2ccc(OCC(=O)O)cc2)NC(=O)[C@H](Cc2ccc(-c3ccccc3)cc2)NC(=O)[C@H](Cc2ccc(OCC(=O)O)cc2)NC(=O)[C@H](Cc2c[nH]c3ccccc23)NC(=O)[C@H](CC(=O)O)NC(=O)[C@H](Cc2ccncc2)NC(=O)[C@H](Cc2ccc(OCC(=O)O)cc2)NC(=O)CSC[C@@H](C(=O)N[C@@H](CCN)C(=O)NCCOCCOCC(=O)NCCCCCCCCCCC(=O)O)NC(=O)[C@H]([C@@H](C)O)NC(=O)[C@H](C(C)C)NC(=O)[C@H](CC2CCCCC2)NC(=O)[C@H](CC(N)=O)NC1=O [Example 1378] ({CH2CO}-Y(Carboxymethyl)[4Pal]DWY(Carboxymethyl)[Bip]Y(Carboxymethyl)[NMeA][dL]N[Cha]VTC[Dab][AEEA][Aun]-OH; thioether N-14)	0.0948
CC(C)C[C@H]1NC(=O)[C@H](C)N(C)C(=O)[C@H](Cc2ccc(OCC(=O)O)cc2)NC(=O)[C@H](Cc2ccc(-c3ccccc3)cc2)NC(=O)[C@H](Cc2ccc(OCC(=O)O)cc2)NC(=O)[C@H](Cc2c[nH]c3ccccc23)NC(=O)[C@H](CC(=O)O)NC(=O)[C@H](Cc2ccncc2)NC(=O)[C@H](Cc2ccc(OCC(=O)O)cc2)NC(=O)CSC[C@@H](C(=O)N[C@@H](CCCN)C(=O)NCCOCCOCC(=O)NCCCCCCCCCCC(=O)O)NC(=O)[C@H]([C@@H](C)O)NC(=O)[C@H](C(C)C)NC(=O)[C@H](CC2CCCCC2)NC(=O)[C@H](CC(N)=O)NC1=O [Example 1379] ({CH2CO}-Y(Carboxymethyl)[4Pal]DWY(Carboxymethyl)[Bip]Y(Carboxymethyl)[NMeA][dL]N[Cha]VTC[Orn][AEEA][Aun]-OH; thioether N-14)	0.175
CC(C)C[C@H]1NC(=O)[C@H](C)N(C)C(=O)[C@H](Cc2ccc(OCC(=O)O)cc2)NC(=O)[C@H](Cc2ccc(-c3ccccc3)cc2)NC(=O)[C@H](Cc2ccc(OCC(=O)O)cc2)NC(=O)[C@H](Cc2c[nH]c3ccccc23)NC(=O)[C@H](CC(=O)O)NC(=O)[C@H](Cc2ccncc2)NC(=O)[C@H](Cc2ccc(OCC(=O)O)cc2)NC(=O)CSC[C@@H](C(=O)N[C@@H](CCN)C(=O)NCCOCCOCC(=O)NCCCCCCCCCCC(=O)O)NC(=O)[C@H](CCCN)NC(=O)[C@H](C(C)C)NC(=O)[C@H](CC2CCCCC2)NC(=O)[C@H](CC(N)=O)NC1=O [Example 1380] ({CH2CO}-Y(Carboxymethyl)[4Pal]DWY(Carboxymethyl)[Bip]Y(Carboxymethyl)[NMeA][dL]N[Cha]V[Orn]C[Dab][AEEA][Aun]-OH; thioether N-14)	0.119
CC(C)C[C@H]1NC(=O)[C@H](C)N(C)C(=O)[C@H](Cc2ccc(OCC(=O)O)cc2)NC(=O)[C@H](Cc2ccc(-c3ccccc3)cc2)NC(=O)[C@H](Cc2ccc(OCC(=O)O)cc2)NC(=O)[C@H](Cc2c[nH]c3ccccc23)NC(=O)[C@H](CC(=O)O)NC(=O)[C@H](Cc2ccncc2)NC(=O)[C@H](Cc2ccc(OCC(=O)O)cc2)NC(=O)CSC[C@@H](C(=O)N[C@@H](CCN)C(=O)NCCOCCOCC(=O)NCCCCCCCCCCC(=O)O)NC(=O)[C@H]([C@@H](C)O)NC(=O)[C@H](C(C)C)NC(=O)[C@H](CC2CCCCC2)NC(=O)[C@H](CCN)NC1=O [Example 1381] ({CH2CO}-Y(Carboxymethyl)[4Pal]DWY(Carboxymethyl)[Bip]Y(Carboxymethyl)[NMeA][dL][Dab][Cha]VTC[Dab][AEEA][Aun]-OH; thioether N-14)	0.0274
CC(C)C[C@H]1NC(=O)[C@H](C)N(C)C(=O)[C@H](Cc2ccc(OCC(=O)O)cc2)NC(=O)[C@H](Cc2ccc(-c3ccccc3)cc2)NC(=O)[C@H](Cc2ccc(OCC(=O)O)cc2)NC(=O)[C@H](Cc2c[nH]c3ccccc23)NC(=O)[C@H](CC(=O)O)NC(=O)[C@H](Cc2ccncc2)NC(=O)[C@H](Cc2ccc(OCC(=O)O)cc2)NC(=O)CSC[C@@H](C(=O)N[C@@H](CCCN)C(=O)NCCOCCOCC(=O)NCCCCCCCCCCC(=O)O)NC(=O)[C@H]([C@@H](C)O)NC(=O)[C@H](C(C)C)NC(=O)[C@H](CC2CCCCC2)NC(=O)[C@H](CCN)NC1=O [Example 1382] ({CH2CO}-Y(Carboxymethyl)[4Pal]DWY(Carboxymethyl)[Bip]Y(Carboxymethyl)[NMeA][dL][Dab][Cha]VTC[Orn][AEEA][Aun]-OH; thioether N-14)	0.11
